Measurements: PubChem BioAssay (NCI)
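Each compound was tested at five concentrations against cells in 96-well plates for 48 hours. Here, GI50 denotes the concentration required for 50% inhibition of growth. Definition used: TGI = concentration required for complete inhibition of growth.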

Tests used:
Assay in all cases: NCI tumour cell line growth inhibition, 48 h
SF-268 CNS = system: SF-268 CNS
K-562 leukemia = system: K-562 leukemia
SNB-19 CNS = system: SNB-19 CNS
UACC-62 melanoma = system: UACC-62 melanoma
MCF7 breast = system: MCF7 breast
CAKI-1 renal = system: CAKI-1 renal
A549 NSCLC = system: A549 NSCLC
M14 melanoma = system: M14 melanoma
COLO 205 colon = system: COLO 205 colon
MOLT-4 leukemia = system: MOLT-4 leukemia
RXF 393 renal = system: RXF 393 renal
EKVX NSCLC = system: EKVX NSCLC
SW-620 colon = system: SW-620 colon
HOP-62 NSCLC = system: HOP-62 NSCLC
SF-295 CNS = system: SF-295 CNS
SK-MEL-28 melanoma = system: SK-MEL-28 melanoma
A498 renal = system: A498 renal
HCT-116 colon = system: HCT-116 colon
MDA-MB-231 breast = system: MDA-MB-231 breast
MALME-3M melanoma = system: MALME-3M melanoma
HCC-2998 colon = system: HCC-2998 colon
CCRF-CEM leukemia = system: CCRF-CEM leukemia
SR leukemia = system: SR leukemia
NCI-H460 lung = system: NCI-H460 lung
OVCAR-8 ovarian = system: OVCAR-8 ovarian
PC-3 prostate = system: PC-3 prostate
NCI-H23 lung = system: NCI-H23 lung
SNB-75 CNS = system: SNB-75 CNS
IGROV1 ovarian = system: IGROV1 ovarian

`COc1ccc(C(=O)c2cc(OC)c(C)c(OC)c2)cc1OC(=O)CCl` gave a GI50 (SF-268 CNS) of 1.33 µM, a TGI (SF-268 CNS) greater than 100 µM and a GI50 (K-562 leukemia) of 0.0538 µM. It also gave a TGI (K-562 leukemia) greater than 100 µM, a GI50 (SNB-19 CNS) of 0.388 µM and a TGI (SNB-19 CNS) greater than 100 µM. For the same compound, the GI50 (UACC-62 melanoma) was 1.61 µM, the TGI (UACC-62 melanoma) was 22.4 µM and the GI50 (MCF7 breast) was 0.361 µM. The TGI (MCF7 breast) was greater than 100 µM, the GI50 (CAKI-1 renal) was 0.591 µM and the TGI (CAKI-1 renal) was 77.7 µM. The GI50 (A549 NSCLC) was 1.11 µM, the TGI (A549 NSCLC) was greater than 100 µM and the GI50 (M14 melanoma) was 0.0693 µM. The TGI (M14 melanoma) was 12.2 µM, the GI50 (COLO 205 colon) was 7.78 µM and the TGI (COLO 205 colon) was 69.4 µM. The GI50 (MOLT-4 leukemia) was 0.145 µM, the TGI (MOLT-4 leukemia) was 18 µM and the GI50 (RXF 393 renal) was 0.33 µM. It also gave a TGI (RXF 393 renal) of 32.5 µM, a GI50 (EKVX NSCLC) of 3.6 µM and a TGI (EKVX NSCLC) greater than 100 µM. The GI50 (SW-620 colon) was 0.211 µM, the TGI (SW-620 colon) was greater than 100 µM and the GI50 (HOP-62 NSCLC) was 0.668 µM. For the same compound, the TGI (HOP-62 NSCLC) was greater than 100 µM, the GI50 (SF-295 CNS) was 0.764 µM and the TGI (SF-295 CNS) was 30.7 µM. It also gave a GI50 (SK-MEL-28 melanoma) of 0.732 µM, a TGI (SK-MEL-28 melanoma) of 40.4 µM and a GI50 (A498 renal) of 2.09 µM. For the same compound, the TGI (A498 renal) was 7.39 µM, the GI50 (HCT-116 colon) was 0.392 µM and the TGI (HCT-116 colon) was greater than 38.3 µM. It also gave a GI50 (MDA-MB-231 breast) of 0.353 µM, a TGI (MDA-MB-231 breast) of 18.6 µM and a GI50 (MALME-3M melanoma) of 0.572 µM. For the same compound, the TGI (MALME-3M melanoma) was 48.1 µM, the GI50 (HCC-2998 colon) was 0.633 µM and the TGI (HCC-2998 colon) was 19.3 µM. The GI50 (CCRF-CEM leukemia) was 0.331 µM, the TGI (CCRF-CEM leukemia) was greater than 100 µM and the GI50 (SR leukemia) was 0.0305 µM. For the same compound, the TGI (SR leukemia) was 13.2 µM, the GI50 (NCI-H460 lung) was 0.37 µM and the TGI (NCI-H460 lung) was 12.7 µM. The GI50 (OVCAR-8 ovarian) was 0.507 µM, the TGI (OVCAR-8 ovarian) was greater than 100 µM and the GI50 (PC-3 prostate) was 0.275 µM. For the same compound, the TGI (PC-3 prostate) was greater than 100 µM, the GI50 (NCI-H23 lung) was 0.558 µM and the TGI (NCI-H23 lung) was greater than 100 µM. For the same compound, the GI50 (SNB-75 CNS) was 0.154 µM, the TGI (SNB-75 CNS) was greater than 100 µM and the GI50 (IGROV1 ovarian) was 1.19 µM. For the same compound, the TGI (IGROV1 ovarian) was greater than 100 µM.
